Earlier results in US7939308B2, “Bio-based method for making mannitol” (The United States of America as represented by the …, priority 2002, dated 2011).
≈ marks a conversion by molar mass, not a printed value.

Conditions: at 25° C.

solubility limit: 180 g/L (≈ 988 mM)
Compound: OC[C@@H](O)[C@@H](O)[C@H](O)[C@H](O)CO [mannitol, Mannitol]
